Data from BindingDB's records for doi:10.7270/Q2C53J9J (University of Pittsburgh, 2010).

molecular target: T1, Glucose-6-phosphate 1-dehydrogenase (Leuconostoc mesenteroides, UniProt P11411); experiment: Leuconostoc G6PDH inhibition potency, SAR follow-up, counter-screen for TbHK1 inhibitor project, biochemical, analogue series, IC50 (AID 2579)
T1 sequence (P11411 whole entry): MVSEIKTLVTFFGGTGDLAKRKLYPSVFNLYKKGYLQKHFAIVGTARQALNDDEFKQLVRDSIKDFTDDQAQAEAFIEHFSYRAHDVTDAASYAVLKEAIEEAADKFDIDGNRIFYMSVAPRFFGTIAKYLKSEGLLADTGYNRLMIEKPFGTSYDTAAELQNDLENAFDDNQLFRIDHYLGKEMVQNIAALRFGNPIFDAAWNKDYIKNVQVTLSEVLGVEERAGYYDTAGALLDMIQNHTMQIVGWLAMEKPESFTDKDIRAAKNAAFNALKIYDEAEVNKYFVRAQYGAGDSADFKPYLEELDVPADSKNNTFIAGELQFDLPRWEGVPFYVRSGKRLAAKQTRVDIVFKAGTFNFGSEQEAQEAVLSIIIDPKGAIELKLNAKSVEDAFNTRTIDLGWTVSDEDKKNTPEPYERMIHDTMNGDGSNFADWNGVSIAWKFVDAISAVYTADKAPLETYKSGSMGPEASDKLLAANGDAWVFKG

| Compound | IC50 |
| --- | --- |
| O=C(Nc1cc(Cl)ccc1C(=O)O)c1ccc(Cl)cc1 [4-chloranyl-2-[(4-chlorophenyl)carbonylamino]benzoic acid] | > 25 µM |
| COc1ccc(C(=O)NC(CC(=O)O)c2ccccc2)cc1 (centres undefined) [sodium;3-[(4-methoxybenzoyl)amino]-3-phenylpropanoate] | > 25 µM |
| O=C(Cn1sc2ccccc2c1=O)Nc1ccccc1Br | > 25 µM |
| COc1ccc(NC(=O)c2ccccc2SCc2ccccc2)cc1 [KUC103881N] | > 25 µM |
| O=c1c2ccccc2sn1-c1ccccc1Cl | > 25 µM |
| COc1ccc2sn(-c3ccccc3)c(=O)c2c1 [KSC-09-048] | > 25 µM |
| O=c1c2ccc(F)cc2sn1Cc1ccccc1 [6-fluoro-2-(phenylmethyl)-1,2-benzothiazol-3-one] | > 25 µM |
| COc1ccc(C(=O)Nc2cc(Cl)ccc2C#N)cc1 [KSC-6-267] | > 25 µM |
| COC(=O)c1ccc(Cl)cc1NC(=O)c1ccc(Cl)cc1 | > 25 µM |
| CN(C)c1ccc(C(=O)Nc2cc(Cl)ccc2C(=O)O)cc1 [KUC105997N] | > 25 µM |
| O=C(Cn1sc2ccccc2c1=O)NC1CCCCC1 | > 25 µM |
| O=C(Cn1sc2ccccc2c1=O)Nc1ccc(C(F)(F)F)cc1 [KUC105341N] | > 25 µM |
| N#Cc1ccccc1NC(=O)Cn1sc2ccccc2c1=O | > 25 µM |
| O=C(O)c1ccc(Cl)cc1NC(=O)N1CCOCC1 [KUC105933N] | > 25 µM |
| CCCCCCCC(=O)Nc1cc(Cl)ccc1C(=O)O [KUC106002N] | > 25 µM |
| O=C(Cn1sc2ccccc2c1=O)Nc1ccccc1 [KUC104122N] | > 25 µM |
| COc1ccc(C(=O)Nc2cc(C(=O)O)ccc2Cl)cc1 [4-chloro-3-[(4-methoxybenzoyl)amino]benzoic acid] | > 25 µM |
| COc1ccc(C(=O)Nc2cc(Cl)ccc2C(=O)O)cc1 [4-chloranyl-2-[(4-methoxyphenyl)carbonylamino]benzoic acid] | > 25 µM |
| COc1cccc(C(=O)Nc2cc(Cl)ccc2C(=O)O)c1 | > 25 µM |
| Cc1cc(=O)n(-c2ccccc2)s1 | > 25 µM |
| COc1ccc(C(=O)Nc2cc(OC)ccc2C(=O)O)cc1 [KUC105624N] | > 25 µM |
| COc1ccc(C(=O)Nc2cnccc2C(=O)O)cc1 [3-[(4-methoxybenzoyl)amino]pyridine-4-carboxylic acid] | > 25 µM |
| Cc1ccccc1N1Cc2ccccc2C1=O [KUC103869N] | > 25 µM |
| O=C(Cn1sc2ccccc2c1=O)N1CCCCC1 | > 25 µM |
